Experimental data taken from ChEMBL document CHEMBL5465560, “Selectivity Literature for EUbOPEN Chemogenomic Library” (2024).

Key:
[1] = biological target: T1, Serine/threonine-protein kinase D2 (Homo sapiens) (UniProt Q9BZL6); assay: Selectivity interaction (KinomeScan (DiscoverX)) EUB0000229b PRKD2; details: at 10 µM
T1 sequence (whole entry): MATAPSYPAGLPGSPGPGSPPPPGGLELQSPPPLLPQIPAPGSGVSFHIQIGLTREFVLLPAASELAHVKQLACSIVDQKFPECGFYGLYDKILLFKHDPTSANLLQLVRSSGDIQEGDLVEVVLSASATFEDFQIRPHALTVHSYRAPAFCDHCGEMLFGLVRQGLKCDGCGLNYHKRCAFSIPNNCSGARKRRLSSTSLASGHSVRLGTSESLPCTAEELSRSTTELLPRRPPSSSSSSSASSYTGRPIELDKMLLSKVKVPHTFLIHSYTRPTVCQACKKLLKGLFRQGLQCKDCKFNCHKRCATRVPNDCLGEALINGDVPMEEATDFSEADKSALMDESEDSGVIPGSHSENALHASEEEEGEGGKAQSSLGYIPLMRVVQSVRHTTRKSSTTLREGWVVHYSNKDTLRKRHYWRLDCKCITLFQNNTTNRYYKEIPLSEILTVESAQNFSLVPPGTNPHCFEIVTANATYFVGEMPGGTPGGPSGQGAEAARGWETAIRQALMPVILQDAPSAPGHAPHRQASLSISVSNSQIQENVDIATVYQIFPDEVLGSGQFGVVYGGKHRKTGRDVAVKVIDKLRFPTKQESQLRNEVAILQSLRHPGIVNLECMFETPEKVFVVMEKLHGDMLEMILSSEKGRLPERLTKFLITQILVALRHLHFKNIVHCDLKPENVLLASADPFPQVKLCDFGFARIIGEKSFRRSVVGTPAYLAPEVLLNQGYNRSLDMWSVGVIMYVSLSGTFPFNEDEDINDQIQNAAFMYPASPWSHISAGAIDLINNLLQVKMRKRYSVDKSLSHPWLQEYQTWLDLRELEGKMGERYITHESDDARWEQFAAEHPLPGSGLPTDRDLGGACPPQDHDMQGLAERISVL

[2] = biological target: Misshapen-like kinase 1 (Homo sapiens, UniProt Q8N4C8); assay: Selectivity interaction (SelectScreen Kinase Profiling (Thermo Fisher Scientific)) EUB0001558a MINK1; details: at 1 µM
[3] = biological target: T2, Serine/threonine-protein kinase BRSK2 (Homo sapiens) (UniProt Q8IWQ3); details: at 10 µM
T2 sequence (whole entry): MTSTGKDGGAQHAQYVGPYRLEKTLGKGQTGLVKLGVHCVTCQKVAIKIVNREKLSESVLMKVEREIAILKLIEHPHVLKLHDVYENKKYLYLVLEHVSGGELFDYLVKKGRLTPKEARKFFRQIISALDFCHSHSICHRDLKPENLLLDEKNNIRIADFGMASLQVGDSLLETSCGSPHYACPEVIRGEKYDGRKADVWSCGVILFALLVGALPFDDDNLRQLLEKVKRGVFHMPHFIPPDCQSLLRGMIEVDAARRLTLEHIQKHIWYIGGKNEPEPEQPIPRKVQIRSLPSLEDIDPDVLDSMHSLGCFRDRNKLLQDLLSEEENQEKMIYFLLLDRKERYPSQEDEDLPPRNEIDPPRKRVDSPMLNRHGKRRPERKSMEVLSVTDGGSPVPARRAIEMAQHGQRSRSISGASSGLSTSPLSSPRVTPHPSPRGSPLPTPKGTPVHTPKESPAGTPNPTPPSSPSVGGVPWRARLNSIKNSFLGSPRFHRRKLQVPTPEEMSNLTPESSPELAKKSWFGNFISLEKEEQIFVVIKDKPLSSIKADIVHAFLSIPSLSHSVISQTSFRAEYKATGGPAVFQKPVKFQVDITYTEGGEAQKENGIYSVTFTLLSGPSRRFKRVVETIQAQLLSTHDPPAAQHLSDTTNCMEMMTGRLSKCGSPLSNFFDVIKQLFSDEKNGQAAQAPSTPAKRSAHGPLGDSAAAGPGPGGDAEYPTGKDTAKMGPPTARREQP

[4] = biological target: Tyrosine-protein kinase ABL1 (Homo sapiens, UniProt P00519); assay: Selectivity interaction (Kinase panel (Invitrogen)) EUB0000639a ABL1; details: at 200 nM
[5] = biological target: T3, Serine/threonine-protein kinase Chk1 (Homo sapiens) (UniProt O14757); assay: Selectivity interaction (KinomeScan (DiscoverX)) EUB0000045b CHEK1
T3 sequence (whole entry): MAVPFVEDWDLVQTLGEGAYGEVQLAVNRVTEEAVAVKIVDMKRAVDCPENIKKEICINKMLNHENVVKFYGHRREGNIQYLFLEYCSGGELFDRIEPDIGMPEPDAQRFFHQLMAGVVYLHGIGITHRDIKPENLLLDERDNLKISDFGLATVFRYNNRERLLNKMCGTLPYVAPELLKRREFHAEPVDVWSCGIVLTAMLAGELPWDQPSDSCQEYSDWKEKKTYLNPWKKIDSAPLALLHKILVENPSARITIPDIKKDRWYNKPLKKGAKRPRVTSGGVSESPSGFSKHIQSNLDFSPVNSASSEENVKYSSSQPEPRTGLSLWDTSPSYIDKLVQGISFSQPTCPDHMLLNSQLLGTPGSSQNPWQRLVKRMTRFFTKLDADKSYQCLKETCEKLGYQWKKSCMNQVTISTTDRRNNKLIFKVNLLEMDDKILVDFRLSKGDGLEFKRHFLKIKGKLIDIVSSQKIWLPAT

[6] = biological target: T4, Inhibitor of nuclear factor kappa-B kinase subunit epsilon (Homo sapiens) (UniProt Q14164); assay: Selectivity interaction (KinomeScan (DiscoverX)) EUB0000618a IKBKE; details: at 10 µM
T4 sequence (whole entry): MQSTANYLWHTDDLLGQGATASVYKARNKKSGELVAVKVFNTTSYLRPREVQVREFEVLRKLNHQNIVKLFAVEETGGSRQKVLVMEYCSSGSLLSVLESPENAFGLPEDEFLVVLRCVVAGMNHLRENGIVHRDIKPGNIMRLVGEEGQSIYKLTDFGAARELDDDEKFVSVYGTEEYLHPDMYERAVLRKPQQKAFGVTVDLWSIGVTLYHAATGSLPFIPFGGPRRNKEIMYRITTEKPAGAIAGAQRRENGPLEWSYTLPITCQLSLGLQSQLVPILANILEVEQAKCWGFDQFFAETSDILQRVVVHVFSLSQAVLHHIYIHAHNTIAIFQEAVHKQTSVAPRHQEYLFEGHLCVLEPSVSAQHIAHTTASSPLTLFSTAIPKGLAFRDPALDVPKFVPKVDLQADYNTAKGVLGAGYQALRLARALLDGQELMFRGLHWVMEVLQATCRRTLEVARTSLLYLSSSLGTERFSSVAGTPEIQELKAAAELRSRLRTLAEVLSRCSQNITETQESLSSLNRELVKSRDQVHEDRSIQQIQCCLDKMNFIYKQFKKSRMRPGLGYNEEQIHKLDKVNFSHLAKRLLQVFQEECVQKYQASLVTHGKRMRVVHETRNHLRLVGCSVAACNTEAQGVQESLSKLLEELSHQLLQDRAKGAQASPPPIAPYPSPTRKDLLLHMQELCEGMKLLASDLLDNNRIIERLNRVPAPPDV

Chain of Tyrosine-protein kinase ABL1 (P00519 whole entry): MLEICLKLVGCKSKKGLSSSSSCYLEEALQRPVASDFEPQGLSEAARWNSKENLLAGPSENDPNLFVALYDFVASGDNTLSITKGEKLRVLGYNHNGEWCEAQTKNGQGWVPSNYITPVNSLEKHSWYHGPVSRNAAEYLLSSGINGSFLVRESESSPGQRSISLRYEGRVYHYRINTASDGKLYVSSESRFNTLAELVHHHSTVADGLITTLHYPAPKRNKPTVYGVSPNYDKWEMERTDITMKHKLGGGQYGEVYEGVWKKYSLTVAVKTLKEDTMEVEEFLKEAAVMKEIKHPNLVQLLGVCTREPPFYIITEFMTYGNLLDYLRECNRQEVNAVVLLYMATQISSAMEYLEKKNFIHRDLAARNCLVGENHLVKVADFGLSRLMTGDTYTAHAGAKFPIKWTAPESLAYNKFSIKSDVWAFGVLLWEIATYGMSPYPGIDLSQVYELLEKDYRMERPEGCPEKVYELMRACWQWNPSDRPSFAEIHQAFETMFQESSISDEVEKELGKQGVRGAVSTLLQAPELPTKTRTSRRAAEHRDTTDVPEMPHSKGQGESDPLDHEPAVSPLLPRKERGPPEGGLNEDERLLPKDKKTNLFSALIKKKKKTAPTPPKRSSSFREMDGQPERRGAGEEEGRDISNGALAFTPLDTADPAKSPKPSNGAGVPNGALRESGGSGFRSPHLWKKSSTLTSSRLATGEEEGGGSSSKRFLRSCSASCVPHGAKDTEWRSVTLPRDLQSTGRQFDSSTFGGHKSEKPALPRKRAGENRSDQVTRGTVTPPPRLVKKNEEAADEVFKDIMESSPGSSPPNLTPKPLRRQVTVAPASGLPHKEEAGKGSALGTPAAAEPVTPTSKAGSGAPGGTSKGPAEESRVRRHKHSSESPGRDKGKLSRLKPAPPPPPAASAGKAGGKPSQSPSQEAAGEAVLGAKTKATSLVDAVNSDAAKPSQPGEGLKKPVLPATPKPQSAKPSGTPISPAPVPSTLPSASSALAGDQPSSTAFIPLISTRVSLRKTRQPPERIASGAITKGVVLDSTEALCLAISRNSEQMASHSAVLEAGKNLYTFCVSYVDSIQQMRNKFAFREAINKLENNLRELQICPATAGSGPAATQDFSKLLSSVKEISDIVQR
Chain of Misshapen-like kinase 1 (Q8N4C8 whole entry, looked up): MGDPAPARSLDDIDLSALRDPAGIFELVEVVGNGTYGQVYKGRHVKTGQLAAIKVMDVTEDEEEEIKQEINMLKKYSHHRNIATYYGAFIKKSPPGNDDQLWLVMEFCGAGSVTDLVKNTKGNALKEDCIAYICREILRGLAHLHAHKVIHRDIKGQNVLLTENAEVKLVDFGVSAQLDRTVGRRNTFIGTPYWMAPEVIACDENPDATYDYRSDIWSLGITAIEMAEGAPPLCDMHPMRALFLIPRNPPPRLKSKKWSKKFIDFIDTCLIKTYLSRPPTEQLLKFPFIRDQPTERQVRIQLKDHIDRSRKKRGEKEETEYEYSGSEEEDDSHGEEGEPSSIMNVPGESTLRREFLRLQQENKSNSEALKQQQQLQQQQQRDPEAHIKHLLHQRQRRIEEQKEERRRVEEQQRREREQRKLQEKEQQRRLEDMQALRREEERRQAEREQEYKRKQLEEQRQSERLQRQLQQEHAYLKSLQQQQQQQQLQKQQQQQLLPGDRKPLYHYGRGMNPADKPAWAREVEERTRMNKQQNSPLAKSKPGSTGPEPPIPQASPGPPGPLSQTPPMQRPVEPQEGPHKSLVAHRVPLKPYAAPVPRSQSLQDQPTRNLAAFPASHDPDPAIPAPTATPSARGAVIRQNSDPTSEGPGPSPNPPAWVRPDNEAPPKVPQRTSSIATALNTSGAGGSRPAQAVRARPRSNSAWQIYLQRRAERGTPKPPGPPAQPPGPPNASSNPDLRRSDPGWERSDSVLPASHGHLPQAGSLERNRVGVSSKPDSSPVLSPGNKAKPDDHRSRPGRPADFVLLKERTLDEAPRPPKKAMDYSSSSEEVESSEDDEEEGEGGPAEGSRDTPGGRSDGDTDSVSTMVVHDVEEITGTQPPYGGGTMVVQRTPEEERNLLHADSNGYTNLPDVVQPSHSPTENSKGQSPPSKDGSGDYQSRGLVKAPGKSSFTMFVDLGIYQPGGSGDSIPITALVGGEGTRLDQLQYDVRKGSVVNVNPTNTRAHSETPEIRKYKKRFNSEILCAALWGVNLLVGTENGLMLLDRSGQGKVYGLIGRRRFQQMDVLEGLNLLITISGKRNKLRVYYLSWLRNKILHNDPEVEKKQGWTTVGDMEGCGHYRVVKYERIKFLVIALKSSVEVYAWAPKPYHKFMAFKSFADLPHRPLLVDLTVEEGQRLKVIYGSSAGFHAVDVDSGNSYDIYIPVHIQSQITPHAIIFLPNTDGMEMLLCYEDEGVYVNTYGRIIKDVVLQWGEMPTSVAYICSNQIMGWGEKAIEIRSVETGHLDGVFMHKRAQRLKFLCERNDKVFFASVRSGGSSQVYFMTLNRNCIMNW

Compound: COc1cc(N(C)c2ccnc3ccc(C(F)(F)F)cc23)cc(OC)c1OC
- % binding [1]: 90%

Compound: CC(C)(O)[C@H](F)CN1Cc2cc(NC(=O)c3cnn4cccnc34)c(N3CCOCC3)cc2C1=O
- % of inhibition [2]: 80.5%

Compound: CCN(CC)CCCCNc1ncc2cc(-c3cc(OC)cc(OC)c3)c(NC(=O)NC(C)(C)C)nc2n1
- % of control [3]: 100%

Compound: CC[C@@H]1[C@H](F)C(=O)N[C@@H]1COc1nccc2cc(C(N)=O)c(OC)cc12 [ZIMLOVISERTIB]
- % of inhibition [4]: -8%

Compound: C=CC(=O)Nc1cc(-n2c(=O)ccc3cnc4ccc(-c5ccc(NS(C)(=O)=O)cc5)cc4c32)ccc1C
- % of control ([5]; at 1 µM): 100%
- % of control ([5]; at 10 µM): 79%

Compound: O[C@H]1CC[C@H](Nc2ncc3nc(Nc4c(F)cc(F)cc4F)n([C@H]4CCOC4)c3n2)CC1
- % of control [6]: 85%
